Several values for one entry are separate records, joined by “and”; a condition that tells them apart may be missing. Equal values may be shown once. Toxic doses and inconclusive results are not listed. The calls were made as follows: active = survival T/C of 150% or more; inactive = T/C below 125% in these data.
Test system: CD2F1 mice, L1210 leukemia ip, survival T/C
Assay: NCI In Vivo Anticancer Drug Screen. Data for tumor model L1210 Leukemia (intraperitoneal) in CD2F1 (CDF1) mice
Settings: higher = longer survival
Outline: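 Compound-dosed mice with transplantable tumor versus matched vehicle controls; endpoint ratio T/C reported.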

[1] = endpoint: mean survival time, dose: 100.0 mg/kg/injection, schedule: Q01DX001 (ip), vehicle: saline
[2] = endpoint: mean survival time, dose: 200.0 mg/kg/injection, schedule: Q01DX001 (ip), vehicle: saline
[3] = endpoint: mean survival time, dose: 100.0 mg/kg/injection, schedule: Q01DX001 (ip), vehicle: saline with Tween-80
[4] = endpoint: mean survival time, dose: 200.0 mg/kg/injection, schedule: Q01DX001 (ip), vehicle: saline with Tween-80
[5] = endpoint: mean survival time, dose: 100.0 mg/kg/injection, schedule: Q04DX003 (ip), vehicle: saline with Tween-80
[6] = endpoint: mean survival time, dose: 200.0 mg/kg/injection, schedule: Q04DX003 (ip), vehicle: saline with Tween-80
[7] = endpoint: mean survival time, dose: 100.0 mg/kg/injection, schedule: Q04DX003 (ip), vehicle: Klucel (hydroxypropylcellulose) (HPC)
[8] = endpoint: mean survival time, dose: 200.0 mg/kg/injection, schedule: Q04DX003 (ip), vehicle: Klucel (hydroxypropylcellulose) (HPC)

Measured: T/C

COc1cc(C(C)(C)C)cc(OC)c1C(O)(c1c(OC)cc(C(C)(C)C)cc1OC)c1c(OC)cc(C(C)(C)C)cc1OC
inactive: endpoint: mean survival time, dose: 6.25 mg/kg/injection, schedule: Q01DX009 (ip), vehicle: saline with Tween-80 100 % of control | endpoint: mean survival time, dose: 12.5 mg/kg/injection, schedule: Q01DX009 (ip), vehicle: saline with Tween-80 104 % of control | endpoint: mean survival time, dose: 25.0 mg/kg/injection, schedule: Q01DX009 (ip), vehicle: saline with Tween-80 104 % of control | endpoint: mean survival time, dose: 50.0 mg/kg/injection, schedule: Q01DX009 (ip), vehicle: saline with Tween-80 102 % of control | endpoint: mean survival time, dose: 100.0 mg/kg/injection, schedule: Q01DX009 (ip), vehicle: saline with Tween-80 105 % of control | endpoint: mean survival time, dose: 200.0 mg/kg/injection, schedule: Q01DX009 (ip), vehicle: saline with Tween-80 88 % of control

CC(Cc1ccc2c(c1)OCO2)NCC(O)c1ccc(O)c(O)c1 (stereo not given)
inactive: [1] 103 % of control | [2] 109 % of control

Cc1cc(O)c2c(c1O)C(=O)C13C(=C2O)C(=O)C2C(O)C1C1C(O)C3C(=O)C3=C(O)c4c(O)cc(C)c(O)c4C(=O)C321 (stereo not given)
inactive: endpoint: mean survival time, dose: 6.25 mg/kg/injection, schedule: Q04DX003 (ip), vehicle: saline with Tween-80 102 % of control | endpoint: mean survival time, dose: 12.5 mg/kg/injection, schedule: Q04DX003 (ip), vehicle: saline with Tween-80 107 % of control | endpoint: mean survival time, dose: 25.0 mg/kg/injection, schedule: Q04DX003 (ip), vehicle: saline with Tween-80 93 % of control | endpoint: median survival time, dose: 0.78 mg/kg/injection, schedule: Q01DX009 (ip), vehicle: saline with Tween-80 111 % of control | endpoint: median survival time, dose: 1.56 mg/kg/injection, schedule: Q01DX009 (ip), vehicle: saline with Tween-80 109 % of control | endpoint: median survival time, dose: 3.12 mg/kg/injection, schedule: Q01DX009 (ip), vehicle: saline with Tween-80 97 % of control and 102 % of control

CS/C([S-])=N/[NH-].CS/C([S-])=N/[NH-].[Pd]
inactive: [3] 107 % of control | [4] 103 % of control

O=C1CCCCCN1C(=O)c1ccccc1
inactive: endpoint: mean survival time, dose: 50.0 mg/kg/injection, schedule: Q01DX009 (ip), vehicle: other 105 % of control | endpoint: mean survival time, dose: 100.0 mg/kg/injection, schedule: Q01DX009 (ip), vehicle: other 97 % of control | endpoint: mean survival time, dose: 200.0 mg/kg/injection, schedule: Q01DX009 (ip), vehicle: other 105 % of control

CC(=O)Nc1nc2nccn2c(=O)[nH]1
inactive: endpoint: median survival time, dose: 50.0 mg/kg/injection, schedule: Q01DX005 (ip), vehicle: saline 101 % of control | endpoint: median survival time, dose: 100.0 mg/kg/injection, schedule: Q01DX005 (ip), vehicle: saline 100 % of control | endpoint: median survival time, dose: 200.0 mg/kg/injection, schedule: Q01DX005 (ip), vehicle: saline 101 % of control

Cc1cn(C2CC(O)C(COC(=O)Nc3cccc4ccccc34)O2)c(=O)[nH]c1=O (stereo not given)
inactive: endpoint: mean survival time, dose: 12.5 mg/kg/injection, schedule: Q01DX005 (ip), vehicle: other 100 % of control | endpoint: mean survival time, dose: 25.0 mg/kg/injection, schedule: Q01DX005 (ip), vehicle: other 100 % of control | endpoint: mean survival time, dose: 50.0 mg/kg/injection, schedule: Q01DX005 (ip), vehicle: other 90 % of control | endpoint: mean survival time, dose: 100.0 mg/kg/injection, schedule: Q01DX005 (ip), vehicle: other 94 % of control | endpoint: mean survival time, dose: 200.0 mg/kg/injection, schedule: Q01DX005 (ip), vehicle: other 94 % of control

O=C1CCCCCCCCC1O (stereo not given)
inactive: [5] 102 % of control | [6] 103 % of control | endpoint: mean survival time, dose: 400.0 mg/kg/injection, schedule: Q04DX003 (ip), vehicle: saline with Tween-80 96 % of control

CCOC/C(C)=C/Cl
inactive: endpoint: mean survival time, dose: 100.0 mg/kg/injection, schedule: Q01DX009 (ip), vehicle: acetone 106 % of control | endpoint: mean survival time, dose: 200.0 mg/kg/injection, schedule: Q01DX009 (ip), vehicle: acetone 103 % of control

Cc1ccc(-c2noc(C)n2)cc1
inactive: [1] 103 % of control | [2] 105 % of control | endpoint: mean survival time, dose: 400.0 mg/kg/injection, schedule: Q01DX001 (ip), vehicle: saline 103 % of control

Nc1nc(-c2cccc([N+](=O)[O-])c2)c(N=Nc2ccc([N+](=O)[O-])cc2)s1
inactive: [3] 93 % of control | [4] 95 % of control

Clc1nnc(-c2ccccc2)s1
inactive: [5] 101 % of control | [6] 91 % of control

O=CC1C(=O)N(c2ccccc2)c2ccccc21 (stereo not given)
inactive: endpoint: mean survival time, dose: 50.0 mg/kg/injection, schedule: Q04DX003 (ip), vehicle: Klucel (hydroxypropylcellulose) (HPC) 98 % of control | [7] 106 % of control | [8] 96 % of control

CCCCOC(=O)c1ccc(Cl)c(Cl)c1
inactive: [7] 92 % of control | [8] 96 % of control | endpoint: mean survival time, dose: 400.0 mg/kg/injection, schedule: Q04DX003 (ip), vehicle: Klucel (hydroxypropylcellulose) (HPC) 103 % of control
